Results taken from paper PMC12198407, “Preclinical and first-in-human of purinostat mesylate, a novel selective HDAC I/IIb inhibitor, in relapsed/refractory multiple myeloma and lymphoma” (Signal Transduction and Targeted Therapy, 2025).

Experiments:
clinical = type: in vivo, human
Protocol: To analyze the pharmacokinetics (PK) of PM, serial blood samples were collected at pre-dose and at 5 minutes, 10 minutes, 20 minutes, 30 minutes, 32 minutes, 35 minutes, 45 minutes, 1 hour, 2 hours, 4 hours, 8 hours, and 12 hours post-dose on day 1. During the multiple dosing phase, blood samples were collected at pre-dose on day 15, and 5 minutes, 10 minutes, 20 minutes, 30 minutes, 32 minutes, 35 minutes, 45 minutes, 1 hour, 2 hours, 4 hours, 8 hours, and 12 hours post-dose on day 15. PM plasma concentrations were determined using ultra performance liquid chromatography (UPLC) coupled with tandem mass spectrometry (MS-MS) detection. Pharmacokinetic parameters, including Tmax, Cmax, AUC0-t, AUC0-∞, t1/2, MRT, CL, Ke, and V, were calculated using the non-compartmental analysis (NCA) method with the professional pharmacokinetic software Phoenix WinNonlin (Version 8.1). Dose proportionality was assessed in single-dose experiments, while drug accumulation was evaluated in multiple-dose experiments.

CYP2B6 [1] = test: CYP induction, cryopreserved human liver cells; type: in vitro ADME; conditions: 0.0500, 0.500, 5.00 µM; three donors
CYP2D6 = target: T1, CYP2D6 (Homo sapiens, UniProt P10635); test: CYP inhibition, human liver microsomes; type: in vitro ADME
T1 construct: human liver microsomal cytochrome P450 isoenzymes; from tissue; host or cells: human liver microsomes

5TGM1-luc myeloma = test: 5TMM mouse model, survival and serum calcium; type: in vivo, C57BL/KawRij mice; parameters: serum calcium level: unit not given here; conditions: 10 mg/kg
Protocol: The cMYC-KRAS12V-induced plasmacytoma mouse model in BALB/c (GemPharmatech Co., Ltd., Nanjing, China) was established as previously described.[33] On day 28 or 35 post bone marrow transplantation, recipients received various treatments. The 5TMM mouse model was established as previously described.[55] The 5TGM1-luc cells were intravenously injected into 6-week-old C57BL/KawRij mice (Harlan Co. Netherlands) with 2 × 10^6 cells per mouse. After three weeks, mice were treated with vehicle or PM 10 mg/kg. Serum Ca^2+ levels were monitored weekly for three weeks after the start of administration. Kaplan-Meier survival curves were generated for each treatment group. Additionally, the 5TMM mouse model studying PM’s effects on immune response and bone destruction involved randomizing mice into vehicle and PM (10 mg/kg) groups one week after inoculation. T cell subsets were analyzed by flow cytometry 24 h after a single dose and 1 month after vehicle or PM treatment. The mice were sacrificed after 1 month of treatment, and the bone destruction was detected by Micro-CT.

[2] = Safety pharmacology, CNS and respiratory; type: in vivo, rats; conditions: 30 and 90 mg/kg i.v.
Protocol: In the 1.2 and 3.6 mg/kg groups, transient increases in heart rate were observed, and in the 3.6 mg/kg group, a transient and reversible prolongation of QT interval (9.6%) was also noted. Additionally, there were no significant effects observed on other qualitative and quantitative ECG parameters or blood pressure in the dogs. […] In the 90 mg/kg group, reduced locomotor activity and decreased standing frequency were also observed, but these effects returned to baseline after 24 hours. No significant effects were noted on other neurological behaviors in rats, and no impacts on the respiratory system were observed.

[3] = test system: human double-hit lymphoma SUDHL-6; test: SUDHL-6 subcutaneous tumor model; type: in vivo, NOD/SCID mice; conditions: for median survival time: satellite group
[4] = Acute toxicity test, intravenous; type: in vivo, Beagle dogs
Protocol: In this study, the designed doses were 10 and 50 mg/kg administered intravenously. […] The maximum tolerated dose (MTD) was determined to be 10 mg/kg.

HDAC3 = HDAC3 (Homo sapiens, UniProt O15379); test: HDAC enzyme activity in vitro; type: biochemical
[5] = Intravenous vascular irritation test; type: in vivo, rabbits; conditions: 0.204 mg/mL, 10 mL/kg, 5 days
Protocol: This experiment included a blank formulation group of injectable Purinostat Mesylate and an injectable Purinostat Mesylate group, with 8 Japanese White Rabbits in each group, evenly divided by sex. The injectable Purinostat Mesylate group received an intravenous infusion of 0.204 mg/mL (the maximum intended clinical concentration) at a volume of 10 mL/kg via the right ear marginal vein. The blank formulation group received an intravenous infusion of hydroxypropyl beta-cyclodextrin at the same dose as the injectable Purinostat Mesylate group. Each rabbit in both groups also received an equal volume of 0.9% sodium chloride injection via the left ear marginal vein as a self-control. The administration was performed once daily for a total of 5 consecutive days, with the first day of administration defined as Day 1 of the experiment. During the study, the general condition of the rabbits and the injection site were monitored daily. Approximately 72 hours and 16 days after administration, 4 rabbits from each group were euthanized for gross anatomical observation of the injection site, and blood vessels and surrounding tissues from the injection site were collected for histopathological examination.

rabbit red blood cells = test: In vitro hemolytic test; conditions: 0.204 mg/mL
Protocol: This experiment included a negative control group (0.9% sodium chloride injection), a positive control group (sterile water for injection), a blank formulation group of injectable Purinostat Mesylate with five dosage levels (0.1, 0.2, 0.3, 0.4, and 0.5 mL/test tube at a concentration of 3.06 mg/mL, which is the same as the concentration of the excipient in the injectable Purinostat Mesylate group), and five dosage levels of injectable Purinostat Mesylate (0.1, 0.2, 0.3, 0.4, and 0.5 mL/test tube at a concentration of 0.204 mg/mL, the maximum intended clinical concentration). A 2% red blood cell suspension was mixed with 0.9% sodium chloride injection, sterile water for injection, the blank formulation of injectable Purinostat Mesylate, and injectable Purinostat Mesylate in the specified proportions, and then placed in a constant temperature incubator at 37±0.5°C. […] Each group was measured in parallel three times.

CYP2B6 [6] = target: T2, CYP2B6 (Homo sapiens, UniProt P20813); test: CYP inhibition, human liver microsomes; type: in vitro ADME
T2 construct: human liver microsomal cytochrome P450 isoenzymes; from tissue; host or cells: human liver microsomes
T2 sequence (P20813 whole entry): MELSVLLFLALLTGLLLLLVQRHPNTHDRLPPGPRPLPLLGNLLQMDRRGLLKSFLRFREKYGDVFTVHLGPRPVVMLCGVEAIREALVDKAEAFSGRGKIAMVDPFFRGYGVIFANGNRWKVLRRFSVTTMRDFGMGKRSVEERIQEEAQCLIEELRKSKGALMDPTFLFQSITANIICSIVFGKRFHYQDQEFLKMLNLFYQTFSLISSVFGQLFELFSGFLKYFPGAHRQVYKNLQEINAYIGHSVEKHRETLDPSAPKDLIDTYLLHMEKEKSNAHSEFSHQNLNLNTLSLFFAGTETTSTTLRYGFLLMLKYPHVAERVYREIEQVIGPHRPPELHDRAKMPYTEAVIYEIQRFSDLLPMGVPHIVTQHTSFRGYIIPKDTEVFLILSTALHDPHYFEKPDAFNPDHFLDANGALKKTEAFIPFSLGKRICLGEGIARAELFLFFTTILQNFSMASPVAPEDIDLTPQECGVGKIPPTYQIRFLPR

T1 sequence (P10635 whole entry): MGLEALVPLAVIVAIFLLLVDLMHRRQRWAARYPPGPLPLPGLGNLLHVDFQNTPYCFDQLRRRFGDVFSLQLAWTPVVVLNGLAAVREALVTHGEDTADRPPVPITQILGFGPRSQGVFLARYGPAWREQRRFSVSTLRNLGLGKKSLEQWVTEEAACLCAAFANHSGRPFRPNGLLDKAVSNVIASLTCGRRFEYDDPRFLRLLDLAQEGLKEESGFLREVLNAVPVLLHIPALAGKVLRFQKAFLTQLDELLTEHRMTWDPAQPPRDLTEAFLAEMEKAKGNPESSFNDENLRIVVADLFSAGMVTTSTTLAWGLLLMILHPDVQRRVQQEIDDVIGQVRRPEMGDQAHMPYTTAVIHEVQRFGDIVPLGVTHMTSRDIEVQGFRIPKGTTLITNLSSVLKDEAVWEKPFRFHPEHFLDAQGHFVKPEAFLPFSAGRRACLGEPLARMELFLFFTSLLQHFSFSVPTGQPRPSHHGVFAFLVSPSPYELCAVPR
HDAC3, sequence (O15379 whole entry): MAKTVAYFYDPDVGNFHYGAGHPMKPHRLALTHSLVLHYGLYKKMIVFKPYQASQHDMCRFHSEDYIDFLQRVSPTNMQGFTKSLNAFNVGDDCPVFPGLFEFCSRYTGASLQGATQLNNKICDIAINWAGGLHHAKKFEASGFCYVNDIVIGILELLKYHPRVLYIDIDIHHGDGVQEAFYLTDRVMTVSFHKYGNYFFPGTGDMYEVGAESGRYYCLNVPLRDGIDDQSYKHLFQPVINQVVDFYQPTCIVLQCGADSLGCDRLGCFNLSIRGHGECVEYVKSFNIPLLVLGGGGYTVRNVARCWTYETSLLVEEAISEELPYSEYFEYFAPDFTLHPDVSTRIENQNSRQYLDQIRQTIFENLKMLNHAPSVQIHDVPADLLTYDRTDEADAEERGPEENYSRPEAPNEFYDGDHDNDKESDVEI
HDAC3, sequence (Q9Y618 395-489 partner limits assumed): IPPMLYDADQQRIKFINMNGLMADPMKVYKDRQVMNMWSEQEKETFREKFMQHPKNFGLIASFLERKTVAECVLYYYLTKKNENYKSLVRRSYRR

Which results are given for `CN(Cc1nc2c(N3CCOCC3)nc(-c3ccc(N)cc3)nc2n1C)c1ncc(C(=O)NO)cn1.CS(=O)(=O)O` [PM, 2-(((2-(4-Aminophenyl)-9-methyl-6-(4-morpholinyl)-9H-purine-8-yl)methyl)methylamino)-N-hydroxy-5-pyrimidine-carboxamide Mesylate]?
accumulation index for AUC0–∞ (multiple doses/single dose) (clinical; 1.2 to 15.0 mg/m^2): 0.97–1.17; accumulation index for Cmax (multiple doses/single dose) (clinical; 1.2 to 15.0 mg/m^2): 0.96 to 1.32; half-life (clinical; human, plasma, iv, single (Day 1) intravenous, range over doses, read-out: half-life (t1/2)): 2.3 to 3.51 h; induction of CYP2B6 (CYP2B6 [1]): did not act as an inducer; IC50 (CYP2D6): > 10 µM; serum calcium level (5TGM1-luc myeloma; two weeks, vehicle 20.93): 8.972; survival (5TGM1-luc myeloma; vehicle 50 days): 86 days; body temperature [2]: a decrease in body temperature; T/C ([3]; 2.5 mg/kg): 47.88±9.41%; tumor inhibition rate ([3]; 2.5 mg/kg i.v. three times a week, mean of two batches): 58.99±2.32%; T/C ([3]; 5 mg/kg): 34.37±3.79%; tumor inhibition rate ([3]; 5 mg/kg): 69.35±3.47%; T/C ([3]; 10 mg/kg): 29.62±1.77%; tumor inhibition rate ([3]; 10 mg/kg): 75.81±8.28%; T/C ([3]; 20 mg/kg): 21.28±6.72%; tumor inhibition rate ([3]; 20 mg/kg): 81.40±5.38%; median survival time ([3]; 10 mg/kg, death = tumor 3000 mm³): 30 days; median survival time ([3]; 20 mg/kg): 30 days; mortality ([4]; 50 mg/kg): all animals dying between days 2 and 4; MTD ([4]; beagle, dog, in vivo, iv, single i.v., read-out: maximum tolerated dose (MTD)): 10 mg/kg; IC50 (HDAC3): 0.0017 µM; irritation at the injection site [5]: did not cause irritation at the injection site; in vitro hemolytic test outcome (rabbit red blood cells): negative; IC50 (CYP2B6 [6]): > 10 µM
